Test results as given in ChEMBL document CHEMBL4138237, “Activation of anti-oxidant Nrf2 signaling by enone analogues of curcumin” (Eur J Med Chem, 2018).
Activity calls are given as the source filed them.

How the values were obtained:
[1] = molecular target: Luciferin 4-monooxygenase (Photinus pyralis, UniProt P08659); experiment: Effect on firefly luciferase activity expressed in human HepG2 cells at low concentration after 5 hrs by luminescence assay; format: ADME, cell-based; conditions: hepg2, 5 h
[2] = molecular target: T1, Nuclear factor erythroid 2-related factor 2 (Homo sapiens) (UniProt Q16236); experiment: Activation of Nrf2 (unknown origin) expressed in human HepG2 cells at 15 uM after 5 hrs by ARE-driven luciferase reporter gene assay relative to control; format: cell-based
T1 sequence (whole entry): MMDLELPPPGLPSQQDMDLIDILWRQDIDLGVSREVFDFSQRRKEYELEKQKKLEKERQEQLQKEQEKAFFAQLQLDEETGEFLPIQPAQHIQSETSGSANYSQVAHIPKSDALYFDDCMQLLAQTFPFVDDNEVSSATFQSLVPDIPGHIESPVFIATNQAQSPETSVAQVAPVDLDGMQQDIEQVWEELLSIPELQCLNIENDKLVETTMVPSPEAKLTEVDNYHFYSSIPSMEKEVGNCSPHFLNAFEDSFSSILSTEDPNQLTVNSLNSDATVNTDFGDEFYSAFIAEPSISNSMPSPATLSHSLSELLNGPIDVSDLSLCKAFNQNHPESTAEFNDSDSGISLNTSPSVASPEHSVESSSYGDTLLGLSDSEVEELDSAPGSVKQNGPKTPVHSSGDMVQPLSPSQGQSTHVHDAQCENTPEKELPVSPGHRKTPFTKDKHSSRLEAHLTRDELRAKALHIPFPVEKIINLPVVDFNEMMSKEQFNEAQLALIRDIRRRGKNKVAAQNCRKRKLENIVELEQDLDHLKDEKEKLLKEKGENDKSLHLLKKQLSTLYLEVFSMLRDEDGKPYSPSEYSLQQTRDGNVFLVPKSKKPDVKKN

Luciferin 4-monooxygenase, sequence (P08659 whole entry): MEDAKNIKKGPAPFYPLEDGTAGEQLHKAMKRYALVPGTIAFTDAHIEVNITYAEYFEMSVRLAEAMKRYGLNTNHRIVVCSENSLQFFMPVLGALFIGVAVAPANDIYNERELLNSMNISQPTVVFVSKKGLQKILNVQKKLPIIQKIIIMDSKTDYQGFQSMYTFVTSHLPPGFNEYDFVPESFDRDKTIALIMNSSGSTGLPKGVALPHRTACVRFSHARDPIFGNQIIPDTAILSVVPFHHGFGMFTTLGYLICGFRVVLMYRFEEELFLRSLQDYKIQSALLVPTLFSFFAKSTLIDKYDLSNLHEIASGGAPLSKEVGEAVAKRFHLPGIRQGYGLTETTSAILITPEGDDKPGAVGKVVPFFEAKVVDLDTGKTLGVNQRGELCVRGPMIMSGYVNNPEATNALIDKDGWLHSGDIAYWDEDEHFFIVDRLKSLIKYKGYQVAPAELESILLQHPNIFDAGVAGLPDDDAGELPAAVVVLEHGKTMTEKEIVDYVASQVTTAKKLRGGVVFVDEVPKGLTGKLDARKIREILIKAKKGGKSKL

| Compound | Activity [1] | Activity [2] | fold change (FC) [2] |
| --- | --- | --- | --- |
| O=C(/C=C/c1ccc(Cl)cc1)/C=C/c1ccc(Cl)cc1 | Non-Toxic | inactive | – |
| COc1ccc(/C=C/C(=O)/C=C/c2ccc(OC)cc2OC)c(OC)c1 | Non-Toxic | – | – |
| COc1cccc(/C=C2\CCC/C(=C\c3cccc(OC)c3)C2=O)c1 | Non-Toxic | Active | – |
| COc1cc(CCC(=O)C(Cc2ccccc2)C(=O)CCc2ccc(O)c(OC)c2)ccc1O | Non-Toxic | – | – |
| O=C(/C=C/c1cccc([N+](=O)[O-])c1)CC(=O)/C=C/c1cccc([N+](=O)[O-])c1 | Non-Toxic | inactive | – |
| O=C(/C=C(\O)c1ccccc1)c1ccccc1 | Non-Toxic | – | – |
| O=C(/C=C/c1cccc(Cl)c1)/C=C/c1cccc(Cl)c1 | Non-Toxic | inactive | – |
| COc1cccc(/C=C/C(=O)/C=C/c2cccc(OC)c2OC)c1OC | Non-Toxic | – | – |
| O=C(/C=C/c1ccccc1Cl)/C=C/c1ccccc1Cl | Non-Toxic | Active | – |
| COc1cc(/C=C/C(=O)/C=C/c2cc(OC)cc(OC)c2)cc(OC)c1 | Non-Toxic | – | – |
| O=C1/C(=C/c2ccc(Br)cc2)CCC/C1=C\c1ccc(Br)cc1 | Non-Toxic | – | – |
| COc1ccc(/C=C/C(=O)CC(=O)/C=C/c2ccc(OC)cc2)cc1 | Non-Toxic | Active | – |
| COc1ccccc1/C=C/C(=O)CC(=O)/C=C/c1ccccc1OC | Non-Toxic | – | – |
| COc1ccc(/C=C2\CN(C)C/C(=C\c3ccc(OC)cc3OC)C2=O)c(OC)c1 | Non-Toxic | – | – |
| CN1C/C(=C\c2cccc(C(F)(F)F)c2)C(=O)/C(=C/c2cccc(C(F)(F)F)c2)C1 | Non-Toxic | Active | – |
| COc1cc(/C=C2\CCC/C(=C\c3ccc(O)c(OC)c3)C2=O)ccc1O [CYCLOVALONE] | Non-Toxic | – | – |
| COc1ccccc1/C=C1\CCC/C(=C\c2ccccc2OC)C1=O | Non-Toxic | inactive | – |
| CC(=O)/C=C/c1ccccc1O | Non-Toxic | – | – |
| COc1ccc(/C=C/C(C)=O)cc1 | Non-Toxic | – | – |
| COc1cc(/C=C2\CN(C)C/C(=C\c3cc(OC)c(OC)c(OC)c3)C2=O)cc(OC)c1OC | Non-Toxic | inactive | – |
| O=C(CCc1ccccc1)CCc1ccccc1 | Non-Toxic | inactive | – |
| N#Cc1ccc(C(=O)/C=C/c2ccccc2)cc1 | Non-Toxic | – | – |
| COc1ccc(/C=C/C(=O)/C=C/c2ccc(OC)c(OC)c2)cc1OC | Non-Toxic | – | – |
| COc1cc(/C=C/C(=O)/C=C/c2ccc(OC(C)=O)c(OC)c2)ccc1OC(C)=O | Non-Toxic | – | – |
| O=C(/C=C/c1ccc(Br)cc1)/C=C/c1ccc(Br)cc1 | Non-Toxic | inactive | – |
| O=C(/C=C/c1ccccc1)c1ccccc1 [CHALCONE] | Non-Toxic | Active | – |
| COc1ccc(/C=C2\CN(C)C/C(=C\c3ccc(OC)c(OC)c3OC)C2=O)c(OC)c1OC | Non-Toxic | – | – |

| Compound | Activity [1] | Activity [2] | fold change (FC) [2] |
| --- | --- | --- | --- |
| COc1cc(/C=C2\CN(C)C/C(=C\c3cc(OC)cc(OC)c3)C2=O)cc(OC)c1 | Non-Toxic | – | – |
| COc1ccc(/C=C2\CCC/C(=C\c3ccc(OC)cc3)C2=O)cc1 | Non-Toxic | inactive | – |
| O=C(/C=C/c1ccc(Cl)cc1)CC(=O)/C=C/c1ccc(Cl)cc1 | Non-Toxic | inactive | – |
| COc1ccccc1/C=C/C(=O)/C=C/c1ccccc1OC | Non-Toxic | – | – |
| O=C(/C=C/c1ccc(Br)cc1)CC(=O)/C=C/c1ccc(Br)cc1 | Non-Toxic | inactive | – |
| COc1cccc(/C=C2\CN(C)C/C(=C\c3cccc(OC)c3OC)C2=O)c1OC | Non-Toxic | – | – |
| COc1cccc(/C=C2\CN(C)C/C(=C\c3cccc(OC)c3)C2=O)c1 | Non-Toxic | – | – |
| COc1ccc(OC)c(/C=C2\CCC/C(=C\c3cc(OC)ccc3OC)C2=O)c1 | Non-Toxic | – | – |
| COc1ccc(/C=C/C(=O)CC(=O)/C=C/c2ccc(OC)c(OC)c2)cc1OC [TETRAMETHOXYCURCUMIN] | Non-Toxic | – | – |
| COc1cc(/C=C/C(=O)CC(=O)/C=C/c2cc(OC)cc(OC)c2)cc(OC)c1 | Non-Toxic | Active | – |
| O=C(/C=C/c1ccc(O)cc1)CC(=O)/C=C/c1ccc(O)cc1 [BISDEMETHOXYCURCUMIN] | Non-Toxic | Active | – |
| C/C(C(=O)/C=C/c1ccccc1)=C(O)\C=C\c1ccccc1 | Non-Toxic | – | – |
| O=C(/C=C/c1c(Cl)cccc1Cl)/C=C/c1c(Cl)cccc1Cl | Non-Toxic | inactive | – |
| O=C(/C=C/c1cccc(O)c1)CC(=O)/C=C/c1cccc(O)c1 | Non-Toxic | Active | – |
| CN(C)c1ccc(/C=C/C(=O)/C=C/c2ccc(N(C)C)cc2)cc1 | Non-Toxic | inactive | – |
| Cc1cccc(/C=C2\CN(C)C/C(=C\c3cccc(C)c3)C2=O)c1 | Non-Toxic | Active | – |
| COc1ccc(/C=C2\CCC/C(=C\c3ccc(OC)c(OC)c3)C2=O)cc1OC | Non-Toxic | – | – |
| O=C(/C=C/c1ccccc1)/C=C/c1ccccc1 | Non-Toxic | Active | – |
| COc1cc(/C=C/C(=O)/C=C/c2ccccc2)ccc1O | Non-Toxic | – | – |
| CSc1ccc(/C=C2\CN(C)C/C(=C\c3ccc(SC)cc3)C2=O)cc1 | Non-Toxic | – | – |
| COc1cccc(/C=C/C(=O)CC(=O)/C=C/c2cccc(OC)c2OC)c1OC | Non-Toxic | – | – |
| CC(=O)Oc1ccc(/C=C/C(=O)/C=C/c2ccc(OC(C)=O)cc2)cc1 | Non-Toxic | – | – |
| Cc1ccc(/C=C/C(=O)CC(=O)/C=C/c2ccc(C)cc2)cc1 | Non-Toxic | inactive | – |
| CCc1c(/C=C/C(=O)/C=C/c2ccc(OC)c(OC)c2CC)ccc(OC)c1OC | Non-Toxic | Active | – |
| O=C(O)c1ccc(/C=C/C(=O)c2ccccc2)cc1 | Non-Toxic | Active | – |
| Cc1ccc(C(=O)/C=C/c2ccccc2)c(C)c1 | Non-Toxic | – | 29.9 |
| COc1cc(C(=O)/C=C/c2ccccc2)ccc1O | Non-Toxic | Active | – |

| Compound | Activity [1] | Activity [2] | fold change (FC) [2] |
| --- | --- | --- | --- |
| O=C(/C=C/c1ccccc1C(F)(F)F)/C=C/c1ccccc1C(F)(F)F | Non-Toxic | inactive | – |
| COc1cccc(OC)c1/C=C/C(=O)/C=C/c1c(OC)cccc1OC | Non-Toxic | – | – |
| O=C(/C=C/c1ccccc1)C(Cc1ccccc1)(Cc1ccccc1)C(=O)/C=C/c1ccccc1 | Non-Toxic | Active | – |
| COc1ccc(/C=C/C(=O)CC(=O)/C=C/c2ccc(OC)c(O)c2)cc1O | Non-Toxic | Active | – |
| COc1ccc(/C=C2\CCC/C(=C\c3ccc(OC)c(OC)c3OC)C2=O)c(OC)c1OC | Non-Toxic | – | – |
| COc1ccc(/C=C/C(=O)/C=C/c2ccccc2)cc1 | Non-Toxic | – | – |
| COc1cc(/C=C/C(=O)CC(=O)/C=C/c2ccc(O)c(OC)c2)ccc1O [CURCUMIN] | Non-Toxic | – | 22.6 |
| CN1C/C(=C\c2cccc(Br)c2)C(=O)/C(=C/c2cccc(Br)c2)C1 | Non-Toxic | Active | – |
| CC(C)c1ccc(/C=C2\CN(C)C/C(=C\c3ccc(C(C)C)cc3)C2=O)cc1 | Non-Toxic | Active | – |
| COc1ccc(/C=C2\CN(C)C/C(=C\c3ccc(OC)cc3)C2=O)cc1 | Non-Toxic | – | – |
| COc1cc(/C=C2\CCC/C(=C\c3cc(OC)c(OC)c(OC)c3)C2=O)cc(OC)c1OC | Non-Toxic | – | – |
| O=C(CCc1ccccc1)C(Cc1ccccc1)C(=O)CCc1ccccc1 | Non-Toxic | – | – |
| COc1cc(/C=C/C(=O)c2ccc(O)c(OC)c2)ccc1O | Non-Toxic | Active | – |
| O=C(/C=C/c1ccccc1O)/C=C/c1ccccc1O | Non-Toxic | – | 18.5 |
| COc1ccc(/C=C2\CCC/C(=C\c3ccc(OC)cc3OC)C2=O)c(OC)c1 | Non-Toxic | inactive | – |
| COc1cc(/C=C/C(=O)/C=C/c2ccc(O)c(OC)c2)ccc1O | Non-Toxic | – | 25.1 |
| O=C(/C=C/c1ccccc1)/C(Cc1ccccc1)=C(O)/C=C/c1ccccc1 | Non-Toxic | – | – |
| O=C(O)c1ccc(C(=O)/C=C/c2ccccc2)cc1 | Non-Toxic | – | – |
| O=C1/C(=C/c2cccc(F)c2)CCC/C1=C\c1cccc(F)c1 | Non-Toxic | – | – |
| O=C1/C(=C/c2cccc(O)c2)CCC/C1=C\c1cccc(O)c1 | Non-Toxic | – | – |
| O=C(/C=C/c1cccc(O)c1)/C=C/c1cccc(O)c1 | Non-Toxic | – | – |
| COc1cccc(/C=C2\CCC/C(=C\c3cccc(OC)c3OC)C2=O)c1OC | Non-Toxic | – | – |
| CCOc1ccc(/C=C2\CN(C)C/C(=C\c3ccc(OCC)cc3)C2=O)cc1 | Non-Toxic | – | – |
| COc1ccc(/C=C/C(=O)/C=C/c2ccc(OC)c(O)c2)cc1O | Non-Toxic | – | – |
| CC(C(=O)CCc1ccccc1)C(=O)CCc1ccccc1 | Non-Toxic | – | – |
